According to patent US20030153081A1, “Viral core protein-cationic lipid-nucleic acid-delivery complexes” (priority 1999, published 2003):

Experiments:
[1] = charge ratios worked out from the sequence; type: physicochemical
Excerpt: Mu1 is a polycationic peptide comprised of 19 amino acids associated with the core complex of Adenovirus (Table 1) ^27, 32. We compared the DNA binding capacity of Mu1 with the mouse polyomavirus major capsid protein Vp1 by interaction with plasmid DNA in a gel retardation assay. Vp1 is a 19 amino acid peptide that contains a nuclear localization signal ^26 and contains fewer positively charged amino acids than Mu1. It was therefore predicted to have a lower DNA binding capacity.
The success of non-viral gene delivery vehicles as viable alternatives to virus vector-based systems is dependent on the development of complexes with higher and longer lasting transfection efficiencies. Since the initial identification of cationic liposomes as vehicles for the transfer of genetic material into cells there has been a large push to develop better cationic liposome formulations ^5, 7. Most attempts at improving cationic liposomes have been based on structural modifications to the molecule itself ^30. Novel formulations have been developed which have improved transfection efficiencies ^30. However, particular cell types behave differently in regards to cationic liposomal transfection. For example, we found the polypeptide Mu1 better at enhancing cationic liposome mediated transfection than Vp1. This was probably due to Mu1's greater charge ratio. While both peptides are approximately the same molecular weight, the overall charge ratio of Mu1 was more than twice that of Vp1 (Table 1). […] While a small shift in pDNA mobility was detected when 0.25 μg Mu1 was complexed to 1 μg pCMVβ, almost all of the plasmid was retained near the loading well following addition of 0.5 μg Mu1 (FIG. 1). A 0.5/1.0 (w/w) ratio of Mu1 to pCMVβ corresponds to a 1000/1 molar ratio. Each molecule of Mu1 contains 12 residues that could potentially carry a positive charge. The theoretical charge ratio of Mu1 to pCMVβ would then be 1.6 (12000 Mu1 cations to 7500 pCMVβ anions).

plasmid DNA (pCMVβ) = experiment: gel retardation assay (DNA binding analysis)
Procedure: One microgram of pCMVβ was incubated with 0 μg (lane 2), 5 μg (lane 3), 10 μg (lane 4), 15 μg (lane 5), 20 μg (lane 6), 25 μg (lane 7) and 30 μg (lane 8) of BSA for 10 minutes at room temperature in 1× HBS. Samples were then analyzed on a 1% agarose gel for altered mobility.
When ratios of 0.5 (w/w) or greater were used, however, migration of both forms of pDNA was severely retarded.
C). The Polyomavirus protein Vp1 was much less efficient at preventing pDNA migration. pCMVβ (1 μg) was incubated with 2 μg (lane 2), 4 μg (lane 3), 6 μg (lane 4), 8 μg (lane 5), 16 μg (lane 6), 32 μg (lane 7) and 0 μg (lane 8) Vp1. Only ratios of 6 or higher (protein: pDNA, w/w) caused significant retardation of supercoiled pDNA (lane 6, lower band). Also, not until a ratio of 32 (w/w) was used was there any effect on relaxed pDNA (lane 7, upper band). In all gels lane 1 corresponds to 1 Kb DNA marker (BRL).
The purified peptides were reconstituted in sterile distilled H2O at 3 mg/mL. Peptide and pDNA were complexed in 20 μL HEPES buffered saline (137 mM NaCl, 5 mM KCl, 0.75 mM Na2HPO4, 19 mM HEPES, pH 7.4) for 20 minutes at room temperature. Peptide: pDNA complexes were subsequently analyzed by agarose gel electrophoresis (1%). Control incubations for general macromolecular pDNA interactions were performed with varying amounts of molecular biology grade purified bovine serum albumin (Sigma).
Varying amounts of purified peptide were incubated at room temperature in HBS for approximately 10 minutes and then analyzed by agarose gel electrophoresis. Without the addition of peptide, supercoiled and relaxed circular plasmid DNA (pDNA) migrated in the expected manner (FIG. 1, lane 8).

Substance: H-MRRAHHRRRRASHRRMRGG-OH [Mu1]
- Charge/AA ratio [1]: 0.63
- theoretical charge ratio of Mu1 to pCMVβ ([1]; 0.5/1.0 (w/w) Mu1 to pCMVβ, 12000 cations to 7500 anions): 1.6
- ratio of protein to pDNA giving slight retardation of supercoiled pDNA, relaxed form not altered (plasmid DNA (pCMVβ); 1 μg pCMVβ, 1% agarose gel): 0.25 w/w
- ratio of protein to pDNA at or above which migration of both forms of pDNA was severely retarded (plasmid DNA (pCMVβ); 1 μg pCMVβ, 1x HBS, 1% agarose gel): ≥ 0.5 w/w
- concentration retarding electrophoretic mobility of plasmid DNA relative to Vp1 (plasmid DNA (pCMVβ); Mu1 vs Vp1): 1/60
- concentration in solution, pDNA retardation (plasmid DNA (pCMVβ); gel retardation complexes, 20 μL): 25 ng/mL
